Laboratory results published in patent publication US12102709B2, “Anti-obesity agent, anti-dementia agent, deodorant, anti-aging agent, anti-glycation agent, anti-type I allergy agent, hypotensive agent, flavor improving agent, muscle enhancing agent, and bone metabolism improving agent” (Mitsui Sugar Co., Ltd., priority 2018, dated 2024).

How the values were obtained:
[1] = AGEs crosslinking cutting test; format: biochemical; details: PTB 5 mmol/L
Experimental: Next, according to the AGEs crosslinking cutting test, the AGEs decomposition activity of the bagasse decomposition extract (the extract A) was evaluated. […] PPD) having an α-diketone structure was used as a model substrate, which is a known method (for example, Glycative Stress Research 2015, Vol. 2 (No. 2), pp. 58-66). The extract A as a bagasse decomposition extract was dissolved in distill water to a concentration of 20 mg/mL to prepare a test sample. The above prepared sample was added to a reaction solution containing a 0.16 mol/L phosphate buffer solution (pH 7.4), and a […] PPD composition to a concentration of 1/2 (10 mg/mL) and incubated at 37° C. for 8 hours. […] The amount of benzoic acid in the supernatant was analyzed through reversed phase HPLC. The amount of benzoic acid in the reaction solution was determined by subtracting the amount of benzoic acid in the sample that was separately measured. Since 1 mol of PPD produced 1 mol of benzoic acid, the crosslinking cutting rate was calculated according to the following formula. […] Then, the reaction solution was centrifuged at 20° C. and 3,000×g, for 10 minutes, and the amount of benzoic acid in the supernatant was analyzed through reversed phase HPLC. The amount of benzoic acid in the reaction solution was determined by subtracting the amount of benzoic acid in the sample that was separately measured. […]

[2] = tested on: 3T3-L1 cells; experiment: 3T3-L1 cell lipid accumulation inhibition test; format: cell-based, mouse; details: berberine chloride final concentration 1 μg/mL; untreated control = 100%
Experimental: The extract A was dissolved in water to prepare 50 mg/mL of a test solution stock solution. The test solution stock solution was diluted with a DMEM culture medium to prepare a test solution with a specimen concentration of 2,000 μg/mL.
3T3-L1 cells (National Institute of Biomedical Innovation, Health and Nutrition) as mouse adipose progenitor cells were seeded on a 24-well plate, and cultured in a DMEM culture medium containing a newborn calf serum (10 vol %, with respect to a total amount of the culture medium) and a penicillin-streptomycin solution (1 vol %, with respect to a total amount of the culture medium) for 4 days. […]
After the lipid droplets were observed, a pigment extract solution contained in the Adipogenesis Assay Kit was added to samples of Example a1, Comparative Example a1-1, and Positive Control a1-1, and Oil Red O incorporated into the lipid droplets was extracted. The absorbance of the extracted Oil Red O at 520 nm was measured using a microplate reader (SpectraMax M2e, commercially available from Molecular Devices, LLC.).
The lipid accumulation rate was calculated from the absorbance of respective samples according to the following formula. […]

[3] = tested on: C2C12 cells; experiment: Mitochondrial activation test (activity per cell); format: cell-based, mouse; details: resveratrol 50 μM, 1% (v/v) ethanol; 48 hours; Comparative Example i1-2 = 100%
Experimental: (Cells) • Mouse Myoblasts C2C12 Cells (ATCC, CRL-1772) (Culture Mediums) • Growth culture medium composition: DMEM culture medium, 10% FBS, antibiotics added • Differentiation culture medium composition: DMEM culture medium, 0.5% FBS, antibiotics added C2C12 cells were cultivated using a growth culture medium in a T-75 flask (75 cm^2 U-shaped canted neck cell culture flask, commercially available from Corning Co., Ltd.). The T-75 flask was put into a CO2 incubator (5% CO2, 37° C., wet) and the C2C12 cells were cultured. The culture medium was replaced every other day, and when an 80% confluence was reached, the cells were collected and used for the test. […] Pre-cultured cells were seeded in a 96-well plate for fluorescence observation (optical bottom plate, commercially available from Nunc) at 4×10^4 cells/0.1 mL/well using a growth culture medium. […] Then, the fluorescence intensity was measured with a fluorescent plate reader. The mitochondrial activity per cell was calculated by dividing the fluorescence intensity of the differentiation culture medium containing rhodamine by the fluorescence intensity of the differentiation culture medium containing Hoechst. […] In addition, the relative values (%) in the test samples of Examples i1-4 to i1-6 and Positive Control it when the mitochondrial activity in the test sample of Comparative Example i1-2 was set as 100% were determined.

[4] = tested on: C2C12 cells; experiment: Mitochondrial activation test (amount of mitochondria per cell); format: cell-based, mouse; details: Table 24; positive control; 48 hours; Comparative Example i1-4 = 100%
Experimental: (Cells) • Mouse Myoblasts C2C12 Cells (ATCC, CRL-1772) (Culture Mediums) • Growth culture medium composition: DMEM culture medium, 10% FBS, antibiotics added • Differentiation culture medium composition: DMEM culture medium, 0.5% FBS, antibiotics added C2C12 cells were cultivated using a growth culture medium in a T-75 flask (75 cm^2 U-shaped canted neck cell culture flask, commercially available from Corning Co., Ltd.). The T-75 flask was put into a CO2 incubator (5% CO2, 37° C., wet) and the C2C12 cells were cultured. The culture medium was replaced every other day, and when an 80% confluence was reached, the cells were collected and used for the test. Here, in the following test, regarding a well plate for culturing C2C12 cells, a plate coated with gelatin according to the following coating method was used. […] Then, after the culture supernatant was removed, a differentiation culture medium containing 5 μg/mL Hoechst (reagent for nuclear staining) and 500 nM MitoTracker (mitochondria staining reagent) was added to the well plate, and the fluorescence intensity was measured by the same method as in Test Example i1-1. The amount of mitochondria per cell was calculated by dividing the fluorescence intensity of the differentiation culture medium containing MitoTracker by the fluorescence intensity of the differentiation culture medium containing Hoechst. […]

[5] = tested on: human osteoclast precursor cells; experiment: Osteoclast differentiation inhibition test 2 (proportion of mononuclear cells); format: cell-based; details: 7 days
Experimental: It is known that, when osteoclasts mature, cells fuse each other and become multinucleated. Therefore, the proportion of mononuclear cells of osteoclasts was measured, and an osteoclast differentiation inhibition effect was confirmed. Under the same culture conditions as in Example j2-1, human osteoclast precursor cells were cultured using a culture medium containing the extract A with a concentration shown in Table 27 (Example j3-1), a culture medium containing no extract (Comparative Example j3-1), or a culture medium containing melatonin with a concentration shown in Table 27 (Positive Controls j3-1 to j3-2) as positive controls. The proportion of mononuclear cells (%) was calculated by dividing the number of mononuclear cells in the field of view of the microscope by the total number of cells in the field of view.

[6] = tested on: human osteoclast precursor cells; experiment: Osteoclast differentiation inhibition test 1 (TRAP staining); format: cell-based; details: 1,000 μM melatonin; 7 days; FIG. 11
Experimental: (Cells) • Human osteoclast precursor cells (commercially available from Cosmo Bio Co., Ltd. PT-267 Lot. RBW-F-OSH-HBV) Using the above culture medium, 250 μg/mL of a solution containing the extract A was prepared, and this was used as a test solution (Example j2-1). Human osteoclast precursor cells were seeded in a 96-well culture plate at about 0.3×10^5 cells/50 μl/well. A test solution was added thereto at 50 μL/well and culturing was performed under conditions of 37° C. and 5% CO2 for 7 days. The cultured cells were stained with TRAP using a TRAP staining kit, and observed under a microscope. In the same manner, the same test was performed on a culture medium to which no test solution was added (Comparative Example j2-1) and a culture medium containing 1,000 μM melatonin (Positive Control j2) as a positive control.

O=C(C[n+]1ccsc1)c1ccccc1.[Br-] [PTB, N-phenacylthiazoliumbromide]
Crosslinking cutting rate ([1]; Test Example e2): 20.1%
Crosslinking cutting rate ([1]; Test Example e4): 22.4%

COc1ccc2cc3[n+](cc2c1OC)CCc1cc2c(cc1-3)OCO2 [Positive Control a1-1, berberine chloride]
Lipid accumulation rate [2]: 19±1.0%

Oc1ccc(C=Cc2cc(O)cc(O)c2)cc1 [Positive Control i1-1, resveratrol]
Mitochondrial activity per cell (relative value, %) [3]: 178.4 ± 9.6%
Amount of mitochondria per cell (relative value, %) [4]: 178.4 ± 9.6%

COc1ccc2[nH]cc(CCNC(C)=O)c2c1 [Positive Control j3-1, melatonin]
Proportion of mononuclear cells (%) (average N = 3) ([5]; melatonin 500 μM): 88%
Proportion of mononuclear cells (%) (average N = 3) ([5]; melatonin 1,000 μM): 100%
Microscopic observation of TRAP-stained osteoclasts [6]: a decrease in the number of osteoclasts was also observed
